The text below walks through data of article PMC5805526, “ZB716, a steroidal selective estrogen receptor degrader (SERD), is orally efficacious in blocking tumor growth in mouse xenograft models” (Oncotarget, 2018).

Details of series [1]: method as in PMID 27529700. Particulars: mice; cited from earlier work.
Series [2] concerns ERα. On the set-up: method as in PMID 27529700. Conditions: read-out: binding affinity to ERα, EC50; cited from earlier work.
The target of series [3] is T1, ERα (Homo sapiens, UniProt P03372).
T1 construct: MCF-7 cells were plated at a density of 200,000 cells/60mm dish; endogenous in cells; host or cells: MCF-7
T1 sequence (P03372 1-595): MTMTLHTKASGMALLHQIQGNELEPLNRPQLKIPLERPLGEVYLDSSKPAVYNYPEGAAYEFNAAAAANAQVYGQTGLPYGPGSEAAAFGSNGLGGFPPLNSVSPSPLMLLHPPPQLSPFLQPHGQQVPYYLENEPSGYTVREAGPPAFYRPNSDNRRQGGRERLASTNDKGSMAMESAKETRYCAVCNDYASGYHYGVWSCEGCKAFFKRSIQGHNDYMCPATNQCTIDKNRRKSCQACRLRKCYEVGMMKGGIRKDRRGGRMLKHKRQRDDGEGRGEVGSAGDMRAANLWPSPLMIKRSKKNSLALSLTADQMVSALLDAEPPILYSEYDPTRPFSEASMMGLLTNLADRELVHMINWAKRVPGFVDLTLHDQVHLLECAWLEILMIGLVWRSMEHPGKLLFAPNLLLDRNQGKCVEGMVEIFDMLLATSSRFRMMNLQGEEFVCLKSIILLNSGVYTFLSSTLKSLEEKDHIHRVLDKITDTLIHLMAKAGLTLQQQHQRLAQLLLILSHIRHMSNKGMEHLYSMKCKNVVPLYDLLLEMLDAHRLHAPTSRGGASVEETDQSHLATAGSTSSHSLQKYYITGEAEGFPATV
Put plainly: ER downregulation in MCF-7 cells (Western blot). Conditions: treated for 4 hours, read-out: ERα IC50 (ER downregulation in MCF-7 cells). Type of series: cell-based. Background: In western blotting, separated proteins are transferred to a membrane and probed.
Experimental: MCF-7 cells were plated at a density of 200,000 cells/60mm dish. Media containing the same drug concentrations as the growth curve assay were added on the day following plating (day 0) and allowed to incubate for 5 days for Western blot. Media with the tested compound was changed every other day. Cells were lysed. Lysates were placed on a rotisserie at 4°C for 30 min and then spun at 4°C at 12,000 rcf for 10 min. Supernatants were assayed for protein content, snap-frozen, and stored at −80°C if not run immediately. 50 μg of protein was subjected to Western blot protocol. Membranes were blocked and then incubated with 1:200 dilution of ERα antibody at 4°C overnight followed by 1:10,000 dilution of secondary antibody for 1 hr at room temperature. They were then imaged on a LICOR infrared scanner.

Series [4] relates to mutant ER (Y537S ESR1). Kind of series: ER downregulation in T47D/Y537S cells (Wes Simple Western). Type of series: cell-based. Particulars: T47D/Y537S. From the text: (§1) IC50 values were obtained from dose-response curves for all treatments.
In series [5] the target is T2, mutant ER (Y537S ESR1) (Homo sapiens, UniProt P03372, Y537S).
T2 construct: added to the C terminus of full-length wild-type and mutant (Y537S) ESR1 by PCR amplification; expressed in transfected cells; host or cells: T47D, lentiviral transduction with pFLRu-FH and puromycin selection
T2 sequence (P03372 1-595 Y537S): T1 sequence (P03372 1-595) with Y537S
The description is as above. Type of series: cell-based. Particulars: four hours treatment, ERα normalized to actin; read-out: IC50, ER downregulation in T47D/Y537S cells.
Excerpt: as §1

In series [6] the target is T3, ERα LBD (Homo sapiens, UniProt P03372).
T3 construct: using 7 nM GST-tagged ERα LBD (Invitrogen); purchased Invitrogen
T3 sequence (P03372 311-547 limits assumed): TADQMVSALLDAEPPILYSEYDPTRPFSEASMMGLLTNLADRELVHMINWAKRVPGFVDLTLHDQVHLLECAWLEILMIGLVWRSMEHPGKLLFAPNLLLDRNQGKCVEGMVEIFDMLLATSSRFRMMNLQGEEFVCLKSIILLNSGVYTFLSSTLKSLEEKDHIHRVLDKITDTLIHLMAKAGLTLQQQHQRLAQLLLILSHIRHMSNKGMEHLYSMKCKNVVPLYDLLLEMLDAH
Kind of series: MARCoNI ERα-coregulator interaction peptide microarray. It counts as biochemical. Conditions: 10 μM compound, 7 nM GST-tagged ERα LBD, vs apo. The protocol: The modulation of ERα-coregulator interaction by compound was analyzed using MARCoNI (Micro Array Assay for Real-time Coregulator Nuclear receptor Interaction) as described previously using 7 nM GST-tagged ERα LBD (Invitrogen).
Each condition is measured using 3 technical replicates (arrays). After incubation, unbound receptor is removed by washing, and a tiff image of each array is acquired using a CCD camera and receptor binding to each peptide on the array is quantified using dedicated software. For each condition, the three technical replicates are used to calculate mean and S.E.M. ERα binding as well as compound-induced log-fold modulation vs. control for each individual motif. Significance of the modulation is assessed using Student's t-Test.

The test system of series [7] is TM00386 PDX ER+/PR+/HER2- invasive ductal carcinoma. Put plainly: Efficacy in patient derived xenograft (PDX) tumor model. It counts as in vivo, NOD scid gamma (NSG) mice.
The nature of series [8]: Tolerability in tumor bearing animals. Particulars: all tumor bearing animals, different oral doses. The procedure: Four to six weeks old female ovariectomized Nu/Nu mice were purchased from Charles River Laboratories (Wilmington, MA). MCF-7 cells were cultured and harvested in the exponential growth phase using a PBS/EDTA solution. The animals were injected bilaterally in the mammary fat pad (MFP) with 5×10^6 viable cells suspended in 50 μL sterile PBS mixed with 100 μL Matrigel (reduced factor; BD Biosciences, Bed- ford, MA). 17b-Estradiol pellets (0.72 mg, 60 day release; Innovative Research of America, Sarasota, FL) were implanted subcutaneously in the lateral area of the neck using a precision trochar (10 gages) at the time of cell injection. Tumors were allowed to form and at day 15 post cell injection […]. […] Tumor sizes were monitored and recorded every other day for three weeks of treatment duration.
In a patient-derived xenograft (PDX) mouse model in which the primary tumor donated by a postmenopausal patient was engrafted in NOD scid gamma (NSG™) mice (TM00386 PDX model, Jackson Lab). […] Tumor sizes were monitored and recorded every other day for three weeks of treatment duration.

Residue numbers refer to the chain shown, from its start. “Also recorded” adds a separate entry of the source.

Broadly, the EC50 is the concentration needed to bring the measured effect to its halfway point. As for `C[C@]12CC[C@@H]3c4ccc(B(O)O)cc4C[C@@H](CCCCCCCCC[S+]([O-])CCCC(F)(F)C(F)(F)F)[C@H]3[C@@H]1CC[C@@H]2O` (some centres unmarked) [ZB716], the “plasma peak concentration after single-dose oral gavage relative to same-dose fulvestrant s.c.” value in series [1] was “over 10 times”. Moreover, the EC50 in series [2] is 4.1 nM. For the same molecule, the values for the DC50 in series [3] and in series [5] were 0.8 nM and 24 nM, respectively. The “drug concentration for 50% downregulation of mutant ER relative to wild type” value in series [4] was “about 10 times”. Moreover, the “modulation of ERα interaction with coactivator motifs (NCOA family)” value in series [6] was “strongly reduced”. Moreover, the PDX tumor growth result in series [7] (ZB716 5 mg/kg PO daily) is on record as “as effectively as fulvestrant treatment”; in series [7] (ZB716 at both doses (5 and 20 mg/kg PO daily)) it was “effective in blocking tumor growth; also recorded: regression of tumor comparable to the fulvestrant group”. The “PDX tumor growth inhibition” value in series [7] (ZB716 20 mg/kg PO daily) is reported as “greatest effect on tumor growth inhibition”. Further, the animal body weights result in series [8] was “no significant loss or increase of animal body weights”. Also, the “toxicities in the entire course of treatment” value in series [8] was “no apparent toxicities were observed”.
